Tests used:
[1] = target: Dual specificity protein kinase CLK4 (Homo sapiens, UniProt Q9HAZ1); assay: Selectivity interaction (KinomeScan (DiscoverX)) EUB0000595a CLK4; settings: at 10 µM
[2] = target: Mast/stem cell growth factor receptor Kit (Homo sapiens, UniProt P10721); settings: at 10 µM
[3] = target: Ribosomal protein S6 kinase alpha-3 (Homo sapiens, UniProt P51812); settings: at 10 µM
[4] = target: Mitogen-activated protein kinase 10 (Homo sapiens, UniProt P53779); assay: Selectivity interaction (Upstate Kinase Profiler service (Millipore)) EUB0000056c MAPK10; settings: at 1 µM
Mitogen-activated protein kinase 10, sequence (P53779 whole entry): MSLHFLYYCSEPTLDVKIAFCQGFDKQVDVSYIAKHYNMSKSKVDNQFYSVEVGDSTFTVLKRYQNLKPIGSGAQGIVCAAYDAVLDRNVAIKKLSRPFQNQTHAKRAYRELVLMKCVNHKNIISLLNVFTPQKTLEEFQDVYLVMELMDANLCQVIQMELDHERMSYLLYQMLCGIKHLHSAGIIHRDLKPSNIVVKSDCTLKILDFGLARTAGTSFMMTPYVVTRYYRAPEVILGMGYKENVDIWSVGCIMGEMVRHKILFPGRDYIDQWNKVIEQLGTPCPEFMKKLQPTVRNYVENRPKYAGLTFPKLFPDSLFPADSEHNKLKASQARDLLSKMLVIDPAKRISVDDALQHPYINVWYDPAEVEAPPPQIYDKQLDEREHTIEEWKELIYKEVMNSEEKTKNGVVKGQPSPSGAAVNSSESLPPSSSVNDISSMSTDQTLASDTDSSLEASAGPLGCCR

[5] = target: T1, Myotonin-protein kinase (Homo sapiens) (UniProt Q09013); assay: Selectivity interaction (ProQinase) EUB0000171b DMPK
T1 sequence (whole entry): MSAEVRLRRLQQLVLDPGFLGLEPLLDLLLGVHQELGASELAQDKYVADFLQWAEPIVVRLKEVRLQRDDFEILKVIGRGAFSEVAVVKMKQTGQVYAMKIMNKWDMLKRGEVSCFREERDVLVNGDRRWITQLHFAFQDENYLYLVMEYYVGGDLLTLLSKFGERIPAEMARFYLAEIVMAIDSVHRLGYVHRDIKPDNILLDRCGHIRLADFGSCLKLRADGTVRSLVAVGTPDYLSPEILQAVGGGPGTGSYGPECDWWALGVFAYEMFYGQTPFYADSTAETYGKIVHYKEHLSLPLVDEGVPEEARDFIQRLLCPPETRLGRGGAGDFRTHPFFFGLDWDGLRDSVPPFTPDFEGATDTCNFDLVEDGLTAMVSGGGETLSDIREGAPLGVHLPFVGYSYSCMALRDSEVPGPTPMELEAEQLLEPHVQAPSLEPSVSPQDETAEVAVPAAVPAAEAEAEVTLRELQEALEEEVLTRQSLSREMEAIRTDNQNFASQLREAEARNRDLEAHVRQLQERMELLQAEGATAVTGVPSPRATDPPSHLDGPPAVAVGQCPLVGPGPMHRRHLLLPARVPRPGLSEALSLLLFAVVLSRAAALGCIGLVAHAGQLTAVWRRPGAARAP

[6] = target: Calcium/calmodulin-dependent protein kinase type II subunit alpha (Homo sapiens, UniProt Q9UQM7); assay: Selectivity interaction (KinomeScan (DiscoverX)) EUB0001619a CAMK2A; settings: at 1 µM
Calcium/calmodulin-dependent protein kinase type II subunit alpha, sequence (Q9UQM7 whole entry): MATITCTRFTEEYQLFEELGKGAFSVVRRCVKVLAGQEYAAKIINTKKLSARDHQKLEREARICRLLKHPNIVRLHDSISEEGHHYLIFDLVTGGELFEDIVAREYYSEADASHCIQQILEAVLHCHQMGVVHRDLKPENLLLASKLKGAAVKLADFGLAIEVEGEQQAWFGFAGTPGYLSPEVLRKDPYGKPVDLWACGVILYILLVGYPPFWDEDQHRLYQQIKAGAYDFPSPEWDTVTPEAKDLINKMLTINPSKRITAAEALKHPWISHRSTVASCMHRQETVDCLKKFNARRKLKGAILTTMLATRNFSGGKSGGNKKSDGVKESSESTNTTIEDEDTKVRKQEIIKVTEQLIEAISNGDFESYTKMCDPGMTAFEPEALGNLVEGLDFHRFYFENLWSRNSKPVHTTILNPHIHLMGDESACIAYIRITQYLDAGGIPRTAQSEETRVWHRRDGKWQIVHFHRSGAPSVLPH

[7] = target: Histone-lysine N-methyltransferase, H3 lysine-79 specific (Homo sapiens, UniProt Q8TEK3); assay: Selectivity interaction (Methyltransferase screen (Scintillation proximity assays)) EUB0000255b DOT1L
Histone-lysine N-methyltransferase, H3 lysine-79 specific, sequence (Q8TEK3 whole entry, looked up): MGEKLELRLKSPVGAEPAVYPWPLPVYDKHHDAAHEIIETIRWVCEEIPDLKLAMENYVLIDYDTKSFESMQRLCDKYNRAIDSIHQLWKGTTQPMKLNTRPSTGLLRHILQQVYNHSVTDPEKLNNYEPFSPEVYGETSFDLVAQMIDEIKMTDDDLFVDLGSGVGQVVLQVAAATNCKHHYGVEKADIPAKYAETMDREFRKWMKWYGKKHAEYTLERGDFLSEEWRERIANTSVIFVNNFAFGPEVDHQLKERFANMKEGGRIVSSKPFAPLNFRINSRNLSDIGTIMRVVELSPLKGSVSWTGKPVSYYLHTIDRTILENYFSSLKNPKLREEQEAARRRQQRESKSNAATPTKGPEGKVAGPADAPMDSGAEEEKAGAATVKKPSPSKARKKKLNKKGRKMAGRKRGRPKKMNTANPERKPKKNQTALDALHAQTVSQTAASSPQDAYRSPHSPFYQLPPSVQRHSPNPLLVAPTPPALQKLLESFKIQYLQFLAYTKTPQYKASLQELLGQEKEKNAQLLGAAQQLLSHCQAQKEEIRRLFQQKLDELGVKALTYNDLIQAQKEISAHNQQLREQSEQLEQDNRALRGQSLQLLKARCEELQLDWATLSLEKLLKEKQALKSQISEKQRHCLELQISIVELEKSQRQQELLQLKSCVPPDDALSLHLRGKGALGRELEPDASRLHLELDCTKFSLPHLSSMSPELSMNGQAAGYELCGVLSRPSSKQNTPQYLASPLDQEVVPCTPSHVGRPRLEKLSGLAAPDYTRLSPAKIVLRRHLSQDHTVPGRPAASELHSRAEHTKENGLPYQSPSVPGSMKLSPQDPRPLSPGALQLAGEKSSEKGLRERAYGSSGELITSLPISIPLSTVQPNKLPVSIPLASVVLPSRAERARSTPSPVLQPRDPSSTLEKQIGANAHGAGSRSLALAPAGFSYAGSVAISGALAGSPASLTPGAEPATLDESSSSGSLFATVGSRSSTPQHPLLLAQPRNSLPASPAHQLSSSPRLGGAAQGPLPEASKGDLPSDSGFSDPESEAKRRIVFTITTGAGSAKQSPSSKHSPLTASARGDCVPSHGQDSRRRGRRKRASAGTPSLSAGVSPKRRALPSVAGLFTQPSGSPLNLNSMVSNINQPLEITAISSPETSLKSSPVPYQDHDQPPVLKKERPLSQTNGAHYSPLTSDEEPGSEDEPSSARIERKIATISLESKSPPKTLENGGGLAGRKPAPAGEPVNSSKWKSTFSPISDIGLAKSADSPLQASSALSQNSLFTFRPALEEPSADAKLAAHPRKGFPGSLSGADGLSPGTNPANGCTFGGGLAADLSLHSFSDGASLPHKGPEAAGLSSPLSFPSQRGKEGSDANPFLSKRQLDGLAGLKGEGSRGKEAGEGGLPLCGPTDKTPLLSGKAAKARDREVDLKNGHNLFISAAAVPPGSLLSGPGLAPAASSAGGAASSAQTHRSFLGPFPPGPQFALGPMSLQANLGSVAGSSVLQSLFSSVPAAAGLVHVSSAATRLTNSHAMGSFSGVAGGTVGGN

[8] = target: T2, Megakaryocyte-associated tyrosine-protein kinase (Homo sapiens) (UniProt P42679); assay: Selectivity interaction (KinomeScan (DiscoverX)) EUB0000607a MATK; settings: at 10 µM
T2 sequence (whole entry): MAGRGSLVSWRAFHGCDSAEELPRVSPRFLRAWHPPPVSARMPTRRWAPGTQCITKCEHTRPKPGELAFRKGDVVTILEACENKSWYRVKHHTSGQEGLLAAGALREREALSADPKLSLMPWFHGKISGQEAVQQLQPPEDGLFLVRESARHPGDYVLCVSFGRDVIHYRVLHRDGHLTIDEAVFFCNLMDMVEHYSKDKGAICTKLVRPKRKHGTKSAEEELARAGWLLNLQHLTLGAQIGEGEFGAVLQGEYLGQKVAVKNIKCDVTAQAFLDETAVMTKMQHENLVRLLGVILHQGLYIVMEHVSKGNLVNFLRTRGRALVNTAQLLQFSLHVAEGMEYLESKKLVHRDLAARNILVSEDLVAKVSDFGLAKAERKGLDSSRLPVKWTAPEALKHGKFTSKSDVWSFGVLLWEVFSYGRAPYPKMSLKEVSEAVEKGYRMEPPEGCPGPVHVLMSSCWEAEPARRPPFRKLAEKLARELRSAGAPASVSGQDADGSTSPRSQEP

[9] = system: Hepatocyte growth factor receptor (Homo sapiens), P08581 [Y1235D]; assay: (§1) Selectivity interaction (KinomeScan (DiscoverX)) EUB0000607a MET; settings: at 10 µM
[10] = target: Hepatocyte growth factor receptor (Homo sapiens, UniProt P08581); assay: as §1; settings: at 10 µM
[11] = system: Hepatocyte growth factor receptor (Homo sapiens), P08581 [M1250T]; assay: as §1; settings: at 10 µM
[12] = target: T3, Dual specificity tyrosine-phosphorylation-regulated kinase 2 (Homo sapiens) (UniProt Q92630); assay: Selectivity interaction (KinomeScan (DiscoverX)) EUB0000092b DYRK2; settings: at 10 µM
T3 sequence (whole entry): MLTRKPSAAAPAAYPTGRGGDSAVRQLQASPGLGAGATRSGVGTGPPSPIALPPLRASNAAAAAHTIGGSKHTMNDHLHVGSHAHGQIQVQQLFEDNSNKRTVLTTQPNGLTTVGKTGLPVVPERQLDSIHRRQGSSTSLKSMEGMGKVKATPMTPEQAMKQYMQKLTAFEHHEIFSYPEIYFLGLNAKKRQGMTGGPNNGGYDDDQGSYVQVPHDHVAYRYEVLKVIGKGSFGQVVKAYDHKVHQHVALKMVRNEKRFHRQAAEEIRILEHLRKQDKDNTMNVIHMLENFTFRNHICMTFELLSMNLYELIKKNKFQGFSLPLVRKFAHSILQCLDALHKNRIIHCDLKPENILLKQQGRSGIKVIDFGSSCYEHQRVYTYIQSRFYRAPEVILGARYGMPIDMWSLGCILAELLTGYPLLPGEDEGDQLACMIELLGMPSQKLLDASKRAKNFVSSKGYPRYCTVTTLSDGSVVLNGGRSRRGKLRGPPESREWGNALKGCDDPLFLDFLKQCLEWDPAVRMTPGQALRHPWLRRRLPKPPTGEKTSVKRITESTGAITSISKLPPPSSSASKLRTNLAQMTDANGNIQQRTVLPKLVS

[13] = target: Ribosomal protein S6 kinase alpha-1 (Homo sapiens, UniProt Q15418); assay: Selectivity interaction (KinomeScan (DiscoverX)) EUB0000092b RPS6KA1; settings: at 10 µM

Ribosomal protein S6 kinase alpha-3, sequence (P51812 whole entry): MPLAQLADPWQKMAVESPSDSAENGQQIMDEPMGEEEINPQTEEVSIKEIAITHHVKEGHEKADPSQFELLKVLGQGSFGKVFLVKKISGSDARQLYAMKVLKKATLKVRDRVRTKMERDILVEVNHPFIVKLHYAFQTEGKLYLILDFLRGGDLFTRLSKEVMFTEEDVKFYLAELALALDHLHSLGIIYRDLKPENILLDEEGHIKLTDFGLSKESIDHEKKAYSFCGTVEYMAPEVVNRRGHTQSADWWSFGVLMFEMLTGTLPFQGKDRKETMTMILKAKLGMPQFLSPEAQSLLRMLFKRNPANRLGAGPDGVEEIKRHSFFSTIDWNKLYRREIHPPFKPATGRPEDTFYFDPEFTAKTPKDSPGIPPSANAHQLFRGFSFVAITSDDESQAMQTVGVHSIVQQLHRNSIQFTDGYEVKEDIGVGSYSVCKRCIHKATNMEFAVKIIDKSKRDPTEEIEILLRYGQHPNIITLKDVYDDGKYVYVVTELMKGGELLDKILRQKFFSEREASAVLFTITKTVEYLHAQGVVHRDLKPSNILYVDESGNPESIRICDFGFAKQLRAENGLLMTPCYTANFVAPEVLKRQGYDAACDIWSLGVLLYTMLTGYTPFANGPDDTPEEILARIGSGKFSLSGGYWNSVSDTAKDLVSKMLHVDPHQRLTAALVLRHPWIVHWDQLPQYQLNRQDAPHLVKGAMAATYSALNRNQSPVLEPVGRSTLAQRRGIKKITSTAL
Dual specificity protein kinase CLK4, sequence (Q9HAZ1 whole entry, looked up): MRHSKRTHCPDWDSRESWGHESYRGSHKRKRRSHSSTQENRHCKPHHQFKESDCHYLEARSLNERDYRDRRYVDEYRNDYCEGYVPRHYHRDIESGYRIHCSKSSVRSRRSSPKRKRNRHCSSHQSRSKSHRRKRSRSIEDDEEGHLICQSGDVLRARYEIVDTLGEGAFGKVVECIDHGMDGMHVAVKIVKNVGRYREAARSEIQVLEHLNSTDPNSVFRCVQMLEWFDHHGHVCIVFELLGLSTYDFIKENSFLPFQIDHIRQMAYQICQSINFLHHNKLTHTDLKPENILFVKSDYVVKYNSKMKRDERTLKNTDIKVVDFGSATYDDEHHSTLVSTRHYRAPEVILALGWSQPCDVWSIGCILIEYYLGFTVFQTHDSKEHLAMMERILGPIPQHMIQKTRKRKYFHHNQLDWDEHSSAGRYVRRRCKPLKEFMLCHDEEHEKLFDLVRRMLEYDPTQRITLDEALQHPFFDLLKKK
Mast/stem cell growth factor receptor Kit, sequence (P10721 whole entry): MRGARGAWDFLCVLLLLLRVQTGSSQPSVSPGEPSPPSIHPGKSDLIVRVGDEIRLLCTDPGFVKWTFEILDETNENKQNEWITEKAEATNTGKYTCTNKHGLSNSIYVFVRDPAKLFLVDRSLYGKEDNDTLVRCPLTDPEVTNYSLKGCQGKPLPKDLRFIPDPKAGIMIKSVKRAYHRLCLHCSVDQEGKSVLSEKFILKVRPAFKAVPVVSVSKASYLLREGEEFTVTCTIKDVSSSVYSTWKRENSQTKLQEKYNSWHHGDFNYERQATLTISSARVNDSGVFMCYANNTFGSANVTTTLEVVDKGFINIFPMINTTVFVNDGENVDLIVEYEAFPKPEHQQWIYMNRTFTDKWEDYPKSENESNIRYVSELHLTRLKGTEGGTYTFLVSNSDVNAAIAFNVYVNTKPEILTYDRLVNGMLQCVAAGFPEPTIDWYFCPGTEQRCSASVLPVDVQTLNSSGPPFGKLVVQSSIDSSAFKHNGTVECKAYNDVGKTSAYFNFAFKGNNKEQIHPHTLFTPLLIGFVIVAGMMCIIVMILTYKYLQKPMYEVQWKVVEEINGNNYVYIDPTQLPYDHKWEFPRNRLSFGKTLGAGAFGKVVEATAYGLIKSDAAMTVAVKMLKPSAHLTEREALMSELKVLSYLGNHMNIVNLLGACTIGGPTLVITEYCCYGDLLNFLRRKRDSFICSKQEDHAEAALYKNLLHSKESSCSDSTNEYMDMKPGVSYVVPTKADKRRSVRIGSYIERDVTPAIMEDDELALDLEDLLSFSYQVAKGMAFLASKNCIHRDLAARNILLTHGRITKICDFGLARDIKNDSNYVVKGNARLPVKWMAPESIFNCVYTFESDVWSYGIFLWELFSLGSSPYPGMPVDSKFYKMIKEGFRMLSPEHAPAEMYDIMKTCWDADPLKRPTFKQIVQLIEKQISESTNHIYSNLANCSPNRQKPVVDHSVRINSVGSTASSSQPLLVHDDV

`COCC(=O)NC/C=C/c1ccc2ncnc(Nc3ccc(Oc4ccc(C)nc4)c(C)c3)c2c1` [CP-724714] gave a % of control [1] of 100%.

For `Cc1cc([C@@H](C)Nc2ccccc2C(=O)O)c2nc(N3CCOCC3)cc(=O)n2c1` [AZD-6482], the % of control [2] was 91% and the % of control [3] was 91%.

With `Cc1ccc(-c2ccc3c(ccc4sc5c(c43)NC[C@@H](C)NC5=O)n2)cn1` the % of inhibition [4] was -5%.

`C=CC(=O)Nc1cccc(C(=O)Nc2ccc(Nc3cc(-c4[nH]c(SC)nc4C)ccn3)cc2)c1` gave a % of control ([5]; at 1 µM) of 97% and a % of control ([5]; at 5 µM) of 92%.

With `N#Cc1cccc(-c2c[nH]c3ncnc(N4CCOCC4)c23)c1` the % of control [6] was 79%.

In the case of `COCCN1CCC(c2cc(CN(C)C(=O)c3cccc(Oc4ccccc4)c3)ccn2)CC1`, the % activity ([7]; at 1 µM) was > 95% and the % activity ([7]; at 10 µM) was > 90%.

Compound `CNC(=O)Nc1ccc(-c2nc(N3CC4CCC(C3)O4)c3cnn(C4CCC5(CC4)OCCO5)c3n2)cc1` has a % of control [8] of 100%, a % of control [9] of 24% and a % of control [10] of 93%. It also gave a % of control [11] of 87%.

For `CCC(=O)N1CCN(c2ccc(-n3c(=O)ccc4cnc5ccc(-c6cnc7ccccc7c6)cc5c43)cc2C(F)(F)F)CC1`, the % of control [12] was 86% and the % of control [13] was 68%.
